# Experimental data from publication PMC4005788 (Nature medicine, 2013).
# What was measured:
# [1] = tested on: rats; test: Accelerating rotorod assay; type: in vivo, rat; conditions: equipotent oral doses, 2 h post-dose
# [2] = tested on: NG108-cl cells; test: Clomeleon assay of [Cl−]i in NG108-cl cells; type: cell-based
# [3] = Pharmacokinetic analysis in rats; type: in vivo; conditions: rat
# [4] = target: hERG channel (Homo sapiens, UniProt Q12809); test: hERG inhibition of tail current, automated patch-clamp; type: cell-based
# [5] = tested on: PNI rats; test: Paw withdrawal threshold; type: in vivo, rat
# [6] = target: T1, KCC2 (Rattus norvegicus, UniProt Q63633); test: Imaging of K+-driven Cl− transport; type: cell-based; conditions: for increase of the rate of Cl− accumulation: 25 μM, 15 mM KCl
# T1 sequence (Q63633 1-1116 isoform Q63633-2): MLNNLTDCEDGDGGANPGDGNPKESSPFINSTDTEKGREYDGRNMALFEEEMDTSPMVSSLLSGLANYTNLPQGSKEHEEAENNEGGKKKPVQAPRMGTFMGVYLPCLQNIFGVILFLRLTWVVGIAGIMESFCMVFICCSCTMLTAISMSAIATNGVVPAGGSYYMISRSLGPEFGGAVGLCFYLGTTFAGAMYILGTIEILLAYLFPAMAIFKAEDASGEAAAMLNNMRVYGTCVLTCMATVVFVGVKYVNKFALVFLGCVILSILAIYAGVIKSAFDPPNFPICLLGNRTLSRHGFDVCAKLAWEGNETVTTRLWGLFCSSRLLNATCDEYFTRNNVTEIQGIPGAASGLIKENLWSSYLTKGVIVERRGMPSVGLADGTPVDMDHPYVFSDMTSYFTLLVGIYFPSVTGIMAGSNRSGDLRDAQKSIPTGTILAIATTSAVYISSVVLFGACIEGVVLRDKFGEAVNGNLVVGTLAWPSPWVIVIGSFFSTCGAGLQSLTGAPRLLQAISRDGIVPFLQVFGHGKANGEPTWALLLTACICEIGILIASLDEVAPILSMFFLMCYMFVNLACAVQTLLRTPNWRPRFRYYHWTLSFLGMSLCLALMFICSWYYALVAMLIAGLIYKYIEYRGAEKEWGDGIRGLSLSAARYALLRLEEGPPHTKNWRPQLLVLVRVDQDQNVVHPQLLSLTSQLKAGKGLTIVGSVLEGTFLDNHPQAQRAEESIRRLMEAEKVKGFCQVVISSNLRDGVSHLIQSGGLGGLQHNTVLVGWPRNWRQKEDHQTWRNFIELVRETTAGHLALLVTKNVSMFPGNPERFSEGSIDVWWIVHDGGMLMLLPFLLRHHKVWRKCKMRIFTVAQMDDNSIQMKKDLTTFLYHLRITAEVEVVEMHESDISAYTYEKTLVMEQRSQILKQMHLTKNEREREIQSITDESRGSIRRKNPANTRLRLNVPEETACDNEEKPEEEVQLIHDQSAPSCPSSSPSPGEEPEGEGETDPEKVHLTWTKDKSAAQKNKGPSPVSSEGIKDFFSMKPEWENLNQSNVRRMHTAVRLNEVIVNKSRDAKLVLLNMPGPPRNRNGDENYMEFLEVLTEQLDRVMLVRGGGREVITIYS
# [7] = tested on: GABAA receptor; test: Evoked GABAA currents in SDH neurons with VU0240551; type: cell-based, rat; conditions: acute application, 25 and 100 μM, in the presence of VU0240551
# [8] = tested on: HEK293-cl cells; test: Clomeleon assay of [Cl−]i in HEK293-cl cells; type: cell-based, Human; conditions: HEK293-cl cells (no KCC2; express NKCC1, KCC1, KCC3, KCC4)
# [9] = target: recombinant α1β2γ2 GABAA receptors (Homo sapiens, UniProt P14867+P18507+P47870); test: GABAA receptor automated whole cell patch-clamp in CHO cells; type: cell-based; conditions: 50 μM CLP257, CHO cells
# [10] = tested on: superficial dorsal horn (SDH) neurons; test: Whole-cell recording of EGABA under Cl− load in superficial dorsal horn neurons; type: cell-based, rat; conditions: 25 μM, BDNF-treated and PNI slices
# [11] = tested on: other CCCs; test: Rb+ flux assay in X. laevis oocytes expressing other CCCs; type: cell-based; conditions: 200 nM pre-incubation
# [12] = target: T2, KCC2 (Homo sapiens, UniProt Q9H2X9); test: Rb+ flux assay in X. laevis oocytes expressing KCC2; type: cell-based; conditions: 200 nM pre-incubation, 45 min Rb+ influx, vs vehicle
# T2 sequence (Q9H2X9 1-1139): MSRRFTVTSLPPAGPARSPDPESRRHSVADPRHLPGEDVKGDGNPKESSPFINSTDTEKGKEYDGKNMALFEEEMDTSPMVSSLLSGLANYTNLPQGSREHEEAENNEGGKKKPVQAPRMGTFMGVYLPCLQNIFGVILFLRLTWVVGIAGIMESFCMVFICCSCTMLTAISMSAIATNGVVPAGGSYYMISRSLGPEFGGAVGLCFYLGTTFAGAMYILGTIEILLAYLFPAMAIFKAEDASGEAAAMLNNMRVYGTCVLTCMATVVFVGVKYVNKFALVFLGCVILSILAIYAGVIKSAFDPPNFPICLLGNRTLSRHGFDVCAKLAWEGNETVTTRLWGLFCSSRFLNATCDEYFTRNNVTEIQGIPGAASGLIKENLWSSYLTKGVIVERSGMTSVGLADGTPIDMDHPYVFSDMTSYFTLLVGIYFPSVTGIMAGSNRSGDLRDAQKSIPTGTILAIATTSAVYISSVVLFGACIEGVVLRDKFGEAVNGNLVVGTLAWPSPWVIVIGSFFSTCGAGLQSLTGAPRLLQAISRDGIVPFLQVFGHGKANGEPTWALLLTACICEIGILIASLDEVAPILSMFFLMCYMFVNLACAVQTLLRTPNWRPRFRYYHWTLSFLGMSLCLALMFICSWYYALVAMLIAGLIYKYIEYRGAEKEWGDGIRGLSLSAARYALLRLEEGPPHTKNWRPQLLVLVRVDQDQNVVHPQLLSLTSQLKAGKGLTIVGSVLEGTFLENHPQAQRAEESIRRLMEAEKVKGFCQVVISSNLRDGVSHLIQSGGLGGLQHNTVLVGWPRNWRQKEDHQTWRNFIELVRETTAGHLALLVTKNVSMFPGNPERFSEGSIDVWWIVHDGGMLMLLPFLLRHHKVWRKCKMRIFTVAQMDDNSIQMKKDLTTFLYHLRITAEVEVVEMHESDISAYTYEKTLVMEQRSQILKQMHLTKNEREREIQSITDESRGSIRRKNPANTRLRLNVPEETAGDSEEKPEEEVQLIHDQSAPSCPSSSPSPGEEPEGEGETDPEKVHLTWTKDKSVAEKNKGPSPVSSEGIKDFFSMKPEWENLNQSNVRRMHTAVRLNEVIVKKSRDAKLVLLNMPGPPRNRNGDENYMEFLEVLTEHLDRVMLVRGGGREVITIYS
# [13] = Metabolite analyses; type: in vivo; conditions: not shown
# [14] = tested on: rat hepatoma H4IIE cells; test: Caspase-3 activation in H4IIE cells; type: cell-based; conditions: 24-h exposure, up to 300 μM
# [15] = target: T1, KCC2; test: Cell surface biotinylation and immunoblot of KCC2 in BDNF-treated spinal slices; type: cell-based; conditions: 100 μM, BDNF-pretreated slices
# [16] = tested on: 55 radioligand-receptor interactions; test: Radioligand competition binding screen, whole panel; conditions: 10 μM CLP257, 55 interactions
# [17] = tested on: superficial dorsal horn field responses; type: in vivo, rat; conditions: local spinal 100 μM
# [18] = [Cl−]i reduction, clomeleon assay, 5 h exposure
# [19] = 5 h, [Cl−]i reduction, clomeleon assay, 5 h exposure
# Sequence of hERG channel (Q12809 whole entry): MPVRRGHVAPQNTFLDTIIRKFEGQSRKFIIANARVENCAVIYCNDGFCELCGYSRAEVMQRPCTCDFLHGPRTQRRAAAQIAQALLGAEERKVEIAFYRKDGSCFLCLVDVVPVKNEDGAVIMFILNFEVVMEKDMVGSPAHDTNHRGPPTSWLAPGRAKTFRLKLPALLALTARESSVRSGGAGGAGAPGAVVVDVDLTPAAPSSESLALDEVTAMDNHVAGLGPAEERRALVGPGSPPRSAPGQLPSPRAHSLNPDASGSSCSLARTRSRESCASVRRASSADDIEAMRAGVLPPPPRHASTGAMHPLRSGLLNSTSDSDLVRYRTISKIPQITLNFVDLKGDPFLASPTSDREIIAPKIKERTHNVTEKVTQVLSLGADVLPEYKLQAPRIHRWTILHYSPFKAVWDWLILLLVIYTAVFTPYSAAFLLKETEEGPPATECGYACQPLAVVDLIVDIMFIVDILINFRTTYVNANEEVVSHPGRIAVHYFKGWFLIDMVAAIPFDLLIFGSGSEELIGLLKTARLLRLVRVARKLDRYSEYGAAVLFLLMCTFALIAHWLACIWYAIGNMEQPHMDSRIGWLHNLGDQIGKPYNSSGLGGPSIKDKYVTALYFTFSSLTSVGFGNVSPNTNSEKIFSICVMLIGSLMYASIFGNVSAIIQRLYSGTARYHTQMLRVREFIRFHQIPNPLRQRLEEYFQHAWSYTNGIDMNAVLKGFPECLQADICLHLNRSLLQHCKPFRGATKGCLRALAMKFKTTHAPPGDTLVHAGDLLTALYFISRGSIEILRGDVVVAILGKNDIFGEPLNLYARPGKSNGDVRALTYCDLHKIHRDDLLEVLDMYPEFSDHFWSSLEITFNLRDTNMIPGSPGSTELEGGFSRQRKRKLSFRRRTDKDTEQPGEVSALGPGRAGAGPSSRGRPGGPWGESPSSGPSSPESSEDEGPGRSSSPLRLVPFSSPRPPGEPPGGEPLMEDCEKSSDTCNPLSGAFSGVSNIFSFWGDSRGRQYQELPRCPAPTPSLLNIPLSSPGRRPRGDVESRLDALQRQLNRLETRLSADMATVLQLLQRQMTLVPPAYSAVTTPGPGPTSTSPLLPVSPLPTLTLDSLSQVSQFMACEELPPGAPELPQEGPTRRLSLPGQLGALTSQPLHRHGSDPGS
# Sequence of recombinant α1β2γ2 GABAA receptors (P14867 28-456): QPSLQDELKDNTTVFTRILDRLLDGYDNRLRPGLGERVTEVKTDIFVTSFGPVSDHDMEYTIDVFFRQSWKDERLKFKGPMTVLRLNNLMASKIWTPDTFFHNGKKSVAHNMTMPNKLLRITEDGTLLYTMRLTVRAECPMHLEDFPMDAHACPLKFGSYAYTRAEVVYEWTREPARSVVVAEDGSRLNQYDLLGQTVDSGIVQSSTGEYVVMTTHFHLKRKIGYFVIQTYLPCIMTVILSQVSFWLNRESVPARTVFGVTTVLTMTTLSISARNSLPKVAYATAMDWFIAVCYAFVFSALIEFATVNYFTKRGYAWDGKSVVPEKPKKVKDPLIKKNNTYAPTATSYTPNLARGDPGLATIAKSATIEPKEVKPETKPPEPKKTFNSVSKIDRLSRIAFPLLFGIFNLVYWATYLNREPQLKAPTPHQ
# Sequence of recombinant α1β2γ2 GABAA receptors (P47870 25-512 limits assumed): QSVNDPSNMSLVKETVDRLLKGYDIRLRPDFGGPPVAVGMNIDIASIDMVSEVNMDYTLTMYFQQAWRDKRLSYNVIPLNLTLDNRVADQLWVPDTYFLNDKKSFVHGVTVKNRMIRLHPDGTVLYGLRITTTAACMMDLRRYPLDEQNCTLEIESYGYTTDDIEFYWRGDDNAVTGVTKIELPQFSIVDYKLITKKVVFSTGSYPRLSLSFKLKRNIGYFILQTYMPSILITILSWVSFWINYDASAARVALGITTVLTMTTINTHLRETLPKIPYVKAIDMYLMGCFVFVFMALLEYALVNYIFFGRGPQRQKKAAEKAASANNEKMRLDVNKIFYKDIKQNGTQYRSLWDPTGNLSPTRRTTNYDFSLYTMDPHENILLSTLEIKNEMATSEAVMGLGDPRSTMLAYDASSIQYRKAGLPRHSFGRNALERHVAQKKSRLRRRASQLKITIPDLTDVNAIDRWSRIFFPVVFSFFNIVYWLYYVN
# Sequence of recombinant α1β2γ2 GABAA receptors (P18507 40-475): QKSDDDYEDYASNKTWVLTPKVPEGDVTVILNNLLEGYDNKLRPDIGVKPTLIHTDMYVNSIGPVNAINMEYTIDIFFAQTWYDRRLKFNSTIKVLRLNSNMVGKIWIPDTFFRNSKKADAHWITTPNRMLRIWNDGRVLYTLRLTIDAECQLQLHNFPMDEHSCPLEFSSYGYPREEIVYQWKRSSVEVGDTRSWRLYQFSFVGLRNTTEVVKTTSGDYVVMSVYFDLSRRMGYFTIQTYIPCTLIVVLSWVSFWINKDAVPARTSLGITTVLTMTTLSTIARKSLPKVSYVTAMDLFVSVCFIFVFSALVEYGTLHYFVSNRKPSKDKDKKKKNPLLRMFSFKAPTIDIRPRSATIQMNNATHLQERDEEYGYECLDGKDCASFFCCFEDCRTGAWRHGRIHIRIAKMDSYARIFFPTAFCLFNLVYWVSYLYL
smiles,measurement,setting,value
"CC(C)C[C@H](CN)CC(=O)O [Pregabalin, reference compound]",motor function on accelerating rotorod,[1],depressed motor function
"Cc1csc(NC(=O)CSc2ccc(-c3ccccc3)nn2)n1 [VU0240551, reference compound]",antagonism of the [Cl−]i response to CLP257,"[2]; CLP257 500 nM, 5 h exposure",dose-dependent antagonism
"O=C1N=C(N2CCCCN2)S/C1=C\c1ccc(F)cc1OC(=O)N1CCCC1 [CLP290, 2-{[(5Z)-2-(1,2-diazinan-1-yl)-4-oxo-4,5-dihydro-1,3-thiazol-5-ylidene]methyl}-5-fluorophenyl pyrrolidine-1-carboxylate]",maximal plasma concentration and exposure of CLP257 vs native CLP257,[3]; analyte CLP257 after CLP290,improved maximal plasma concentration and exposure
same,motor function on accelerating rotorod,[1],no effect
same,IC50,[4],224 µM
same,maximal oral analgesic efficacy,"[5]; PO, 100 mg kg^−1 vs Pregabalin 30 mg kg^−1",equivalent to that of Pregabalin
"O=C1N=C(N2CCCCC2)S/C1=C\c1ccccc1O [CL-058, (5Z)-5-[(2-hydroxyphenyl)methylidene]-2-(piperidin-1-yl)-4,5-dihydro-1,3-thiazol-4-one]",EC50,[2]; [18],31.5 µM
"Oc1cc(F)ccc1/C=C1\SC(N2CCCCN2)=NC1=S [CLP355, (5Z)-2-(1,2-diazinan-1-yl)-5-[(4-fluoro-2-hydroxyphenyl)methylidene]-4,5-dihydro-1,3-thiazole-4-thione]",EC50,[2]; [19],0.05 µM
"O=C1N=C(N2CCCCN2)S/C1=C\c1ccc(F)cc1O [CLP257, (5Z)-2-(1,2-diazinan-1-yl)-5-[(4-fluoro-2-hydroxyphenyl)methylidene]-4,5-dihydro-1,3-thiazol-4-one]",increase of the rate of Cl− accumulation,[6]; BDNF-treated spinal slices,26%
same,increase of the rate of Cl− accumulation,[6]; PNI spinal slices,45%
same,Cl− transport,"[6]; 100 μM, BDNF-treated slices",completely restored Cl^− transport to control levels
same,effect on evoked GABAA currents,[7],no effect
same,change in [Cl−]i,[8],no change
same,agonist effect relative to the effect of 5 μM muscimol,[9],< 0.2%
same,EC50,[2]; [19],0.616 µM
same,Maximal [Cl−]i reduction,[2]; NG108-cl cells,~ 40%
same,drop from resting [Cl−]i of 57 mM,[2]; at maximal effect,23 mM
same,EGABA (reversal potential for GABAA currents),[10],hyperpolarized
same,half-life,"[3]; male, Sprague-Dawley, plasma",< 15 min
same,change of transport activity (Rb+ influx) in other CCCs,[11],no change
same,increase of KCC2 transport activity (Rb+ influx),[12],61%
same,metabolism of the hydroxyl moiety,[13],rapidly undergoes glucuronidation
same,Caspase-3 activation,[14],not detected
same,cell surface expression of KCC2 monomers and dimers,[15],increased
same,total KCC2 expression,[15],not significantly affected
same,IC50,[4],449 µM
same,"inhibition of radioligand-receptor interactions, maximum over the panel",[16],≤ 30%
same,maximal analgesic effect compared with Gabapentin,[5]; IP,much weaker than that of Gabapentin
same,mechanical withdrawal thresholds,"[5]; IP, peaking at 100 mg kg^−1, 2 h post-injection",increased withdrawal thresholds
same,evoked field responses,[17]; animals with nerve injury (PNI),renormalized
same,effect on the stimulus-response relationship of evoked field responses,"[17]; naïve animals, 2.5 to 135 g (mm^2)^−1",no effect
"O=C1N=C(N2CCCCN2)S/C1=C\c1ccc(F)cc1OC1OC(C(=O)O)C(O)C(O)C1O (centres unmarked) [CLP386, 6-(2-{[(5Z)-2-(1,2-diazinan-1-yl)-4-oxo-4,5-dihydro-1,3-thiazol-5-ylidene]methyl}-5-fluorophenoxy)-3,4,5-trihydroxyoxane-2-carboxylic acid]",EC50 (μM),[2]; [18],inactive
